Test results reported in patent publication US20190167725A1, “COMPOSITION AND METHOD FOR IMPROVING EFFICACY OF STEM CELLS” (University-Industry Cooperation Group of Kyung Hee …, priority 2016, published 2019).

Assays:
[1] = system: ST2 cells (mouse bone marrow-derived MSCs); conditions: 10 mM, 12 hours, growth factor reduced Matrigel
Procedure: Then, the upper part of each insert was coated with 50 μL of growth factor reduced Matrigel (BD Bioscience). […] The lower chamber membrane was confirmed using a Nikon ECLIPSE TS 100 microscope.

[2] = system: human bone marrow-derived MSCs (hMSCs); conditions: concentration series, serum-free DMEM
Source text: The human bone marrow-derived MSCs (hMSCs) were obtained from Lonza (Basel, Switzerland) and cultured in MSCGM medium (Lonza). Cells which underwent 3 to 6 subcultures were used in the experiment.

[3] = system: mouse bone marrow-derived MSCs; conditions: 200 mM in drinking water for 7 days, vs drinking water without sodium acetate
Procedure: Each C57BL/6 mouse was fed drinking water with or without sodium acetate (200 mM) for 7 days, and femurs were collected from each mouse. The collected femurs were crushed using a mortar, treated with 0.2% type I collagenase (Worthington), and thereby the bone marrow cells attached to the bones were collected.

[4] = system: IL-10; conditions: 10 mM, 48 hours, ST2 cells, vs untreated control (CON)
Procedure: (§1) ST2 cells (3.8×10^5 cells) were added to a 6-well plate under the condition of normal growth medium and cultured overnight. The medium was replaced with low-glucose DMEM medium without FBS and the cells were cultured for 18 hours. Then, the cells were treated with 10 mM sodium acetate (C2) for 48 hours or not treated (CON).
(§2) A cell lysate was obtained from the sample, and total RNA was isolated using TRIzol. The cDNA was synthesized from the total RNA, and the expression levels of mRNAs of VEGF and IL-10 in cells were measured by real-time PCR using primers for VEGF and IL-10 and SYBR green PCR Master Mix (fluorescent material).

[5] = system: VEGF; conditions: 10 mM, 48 hours, ST2 cells, vs untreated control (CON)
Procedure: as §1, §2

[6] = system: ST2 cells (mouse bone marrow-derived MSCs); conditions: 0 mM to 10 mM in lower chamber, 12 hours
Procedure: The cells were maintained in RPMI1640 medium (Invitrogen) containing 10% FBS, 1% penicillin, and streptomycin (Invitrogen). The cells were cultured to a confluence of 80%, recovered with 0.25% trypsin/EDTA (Invitrogen), and subcultured in a ratio of 1:3 to 1:4. The cells which underwent 5 to 8 subcultures were used in the experiment. The cells were maintained in a 37° C. incubator containing 5% CO2.
Millicell culture plate inserts with a pore size of 8 μm (EMD Millipore) were coated with type I collagen (0.5 μg/mL). The ST2 cells (2.5×10^4 cells) were suspended in normal growth medium and added into an upper chamber. After culturing the cells for 5 to 6 hours, the medium was replaced with DMEM medium containing 2% FBS and 1% penicillin and streptomycin.
After culturing for an additional 12 hours, each insert was fixed with 4% formaldehyde in the presence of PBS at room temperature for 10 minutes. The ST2 cells were stained with a hematoxylin solution for 30 minutes, and the cells remaining on the upper chamber membrane were removed using cotton swabs. The lower chamber membrane was confirmed using the Nikon ECLIPSE TS 100 microscope. The number of cells in each cell image was counted using Adobe Photoshop CS6.

[7] = system: ST2 cells (mouse bone marrow-derived MSCs); conditions: 10 mM, 36 hours treatment, 10 days culture, colonies 1 mm or greater
Procedure: Then, the cells were added to a plate at a concentration of 5.7×10^4 cells/well and cultured under conditions of 37° C. and 5% CO2 for 10 days. The plate was then stained with a 1% crystal violet staining solution (Sigma-Aldrich) and the number of colonies was counted under a stereomicroscope. In particular, cell populations with a diameter of 1 mm or greater were considered as colonies.

[8] = system: hematopoietic progenitor cells (Lin-/Sca1+/c-Kit+, LSK); conditions: sodium acetate 4 nmol/kg subcutaneous, blood collected after 10 minutes, vs normal control group
Procedure: Populations of circulating hematopoietic progenitor cells (HPCs), lineage negative, Sca-1 positive, and c-Kit positive (Lin^−/Sca1^+/c-Kit^+, LSK) cells were analyzed by a flow cytometry analyzer.
Monocytes were separated by Ficoll centrifugation. Then, hematopoietic progenitor cells were examined using anti-mouse CD4-FITC (Biolegend, San Diego, Calif.), anti-mouse CD49b-FITC (Biolegend), anti-mouse CD11b-FITC (Biolegend), anti-mouse B220-FITC (Biolegend), anti-mouse Gr-1-FITC (Biolegend), anti-mouse CD8-FITC (Biolegend), anti-mouse Ly-6A/E (Sca-1)-PE (Biolegend), and anti-mouse CD117 (c-Kit)-APC (Biolegend).

[9] = system: human bone marrow-derived MSCs (hMSCs); conditions: 10 mM, two subcultures, 14 days culture, colonies 3 mm or greater
Procedure: Then, the cells were added at a concentration of 5×10^2 cells/well (10 cm dish) to low-glucose DMEM (GE Healthcare Life Sciences) containing 10% FBS, 1% penicillin and streptomycin (Invitrogen), and 1% L-glutamine in a plate, and the plate was incubated under conditions of 37° C. and 5% CO2 for 14 days. The plate was then fixed with 100% methanol, stained with a 1% crystal violet staining solution (Sigma-Aldrich), and the number of colonies was counted under a stereomicroscope. In particular, cell populations of human bone marrow-derived MSCs with a diameter of 3 mm or greater were considered as colonies.

SMILES | invasion (number of cells through Matrigel) [1] | mobility of human bone marrow-derived MSCs (hMSCs) [2] | increase in frequency of cell population of mouse bone marrow-derived MSCs (CFU-F) [3] | increase in size of cell population of mouse bone marrow-derived MSCs (CFU-F) [3] | increase of expression of IL-10 mRNA [4] | increase of expression of VEGF mRNA [5] | mobility of ST2 cells (number of migrated cells) [6] | colony-forming ability (CFU-F) of mouse bone marrow-derived MSCs [7] | hematopoietic progenitor cells (LSK) in the peripheral blood [8] | enhancement of colony-forming ability (CFU-F) of hMSCs [9]
CC(=O)[O-].[Na+] [sodium acetate] | significantly increased | increased in a manner dependent on the concentration | about 2 fold | about 2 fold | about 2.4 fold | about 2.5 fold | increase in a manner dependent on the concentration | significantly increased | enhancement of mobility from the bone marrow to the peripheral blood | about 5 fold
CCCC(=O)[O-].[Na+] [sodium butyrate] |  |  |  |  |  |  | increase in a manner dependent on the concentrations |  |  | 
CCC(=O)[O-].[Na+] [sodium propionate] |  |  |  |  |  |  | increase in a manner dependent on the concentrations | enhancement of a CFU-F-forming ability |  | 
